Results published in patent US20220002806A1, “BIOMARKER” (ERBER AKTIENGESELLSCHAFT, priority 2018, published 2022).

How the values were obtained:
[1] = biological target: estrogen receptors α (Homo sapiens, UniProt P03372); conditions: Zinedine et al. 2007; cited from earlier work
[2] = tested on: weaned female piglets; test: Feeding trial in weaned female piglets: vulva surface, reproductive tract weight, body weight; format: in vivo, pig; conditions: for reproductive tract weight relative to body weight, average (±SD): [reproductive tract (in grams)/body weight (in kg)]*100; for increase of vulva surface compared to the control group: d 26
Excerpt: (§1) Weaned female piglets (sow: Landrace×Large White, boar: Pietrain; 30+/−2 days old) were obtained from a local producer and individually tagged. Piglets were housed in slatted floor pens under controlled environmental conditions. After an acclimatization period of seven days, twenty-four female piglets were selected based on both body weight and vulva size, and allocated to one of four groups (6 animals/group). Piglets received either blank feed (negative control; Ctrl) or feed contaminated with ZEN in three increasing concentrations (ZEN low: 0.17 mg/kg diet; ZEN medium: 1.5 mg/kg diet; ZEN high: 4.6 mg/kg diet). During the 28-day experimental period, each treatment group was given free access to water and the assigned diet. The pigs were observed daily and weighed weekly.
Diets were manufactured at BIOMIN AN (Herzogenburg, Austria), and formulated according to the energy and amino acid requirements for piglets. Four different batches were prepared, one control batch and three batches artificially contaminated with ZEN (Fermentek LTD, Israel; purity >99.2%). Homogenous distribution of ZEN within the diets was achieved by preparation of maltodextrin premixes, which contained appropriate amounts of ZEN and were added to the basal feed at an inclusion rate of 0.9% (w/w). Final ZEN concentrations were verified by HPLC-MS (Romer Labs GmbH) and confirmed.
(§2) Blood was collected weekly (d 0, 6, 14, 21 and 28) from individual animals by punctuation of the vena cava cranialis (Primavette® EDTA, Kabe Labortechnik GmbH, Nümbrecht-Elsenroth, Deutschland). After centrifugation (1500×g, 20 min), serum samples were stored at −80° C. for later analysis. Vulva length and width were measured at regular intervals with a caliper to determine the dietary ZEN effects. The vulva area was calculated as vulva length×vulva width, as previously reported (Jiang et al. 2011. Journal of animal science, 89, 3008-3015). Eight measurements were done per piglet over the experimental period.
After 28 days of dietary exposure to the experimental diets, pigs were anesthetized by intramuscular injection of ketamine (0.1 mL/kg body weight (b.w.) Narketan®, Vétoquinol GmbH, Ravensburg, Germany) and azaperone (0.03 mL/kg b.w.; Stresnil®, Janssen-Cilag, Neuss, Germany). Subsequently, animals were euthanized by intracardial injection of T61® (Intervet, UnterschleiBheim, Germany; 0.1 ml/kg b.w.). The whole reproductive tract was collected, weighed and examined for any clinical signs. Small pieces of the corpus uteri and the mid-jejunum were dissected, placed into 1 mL of RNAlater, and stored overnight at 4° C. The next day, all the tissue samples were transferred to −80° C. for long-term storage, and until processed for transcriptomics analysis.

[3] = biological target: T1, pregnane X receptor (Homo sapiens, UniProt O75469); conditions: in vitro; Ayed-Boussema et al. 2011; cited from earlier work
T1 sequence (O75469 1-434): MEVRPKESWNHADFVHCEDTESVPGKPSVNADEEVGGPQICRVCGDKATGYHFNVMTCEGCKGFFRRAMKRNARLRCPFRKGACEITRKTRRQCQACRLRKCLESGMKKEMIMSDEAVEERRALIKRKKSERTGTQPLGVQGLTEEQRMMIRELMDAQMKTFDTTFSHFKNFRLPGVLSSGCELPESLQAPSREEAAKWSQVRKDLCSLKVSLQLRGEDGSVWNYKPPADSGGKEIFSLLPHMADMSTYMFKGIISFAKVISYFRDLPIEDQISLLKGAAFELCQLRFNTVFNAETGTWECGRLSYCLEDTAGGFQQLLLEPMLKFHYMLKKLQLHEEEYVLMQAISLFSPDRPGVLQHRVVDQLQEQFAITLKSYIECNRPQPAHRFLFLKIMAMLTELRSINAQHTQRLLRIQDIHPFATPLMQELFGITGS

[4] = Zinedine et al. 2007; cited from earlier work
[5] = tested on: prepuberal gilts; conditions: prepuberal gilts fed diets containing 1-5 ppm ZEN; Osweiler; cited from earlier work
[6] = tested on: miR-7; conditions: ovariectomized pigs; intraperitoneal injection of 112.5 mg ZEN per day; He et al. 2018; cited from earlier work
[7] = tested on: miRNAs in serum; test: Targeted qPCR-based miRNA analysis in blood serum of ZEN-exposed piglets; format: in vivo, pig
Excerpt: as §1, §2
miRNA extraction and qPCR analysis: Unlike the small-RNA-Seq analysis, all the animals from the feeding trial were used for investigations of the miRNA profile in the serum (6 per group; total of 24 animals). RNA was isolated from the serum samples using the miRNeasy Mini Kit (Qiagen, Germany). […] To calculate the cycle of quantification values (Cq-values), the second derivative method was used, as known by a person skilled in the art. Cq-values were normalized to the mean Cq-value in each sample (global mean normalization) by subtracting the individual miRNA Cq-value from the Cq average calculated for that sample. […]

[8] = Ctrl vs ZEN high group (4.6 mg/kg diet), day 6 or day 28, unadjusted p-value ≤0.1

estrogen receptors α, sequence (P03372 whole entry): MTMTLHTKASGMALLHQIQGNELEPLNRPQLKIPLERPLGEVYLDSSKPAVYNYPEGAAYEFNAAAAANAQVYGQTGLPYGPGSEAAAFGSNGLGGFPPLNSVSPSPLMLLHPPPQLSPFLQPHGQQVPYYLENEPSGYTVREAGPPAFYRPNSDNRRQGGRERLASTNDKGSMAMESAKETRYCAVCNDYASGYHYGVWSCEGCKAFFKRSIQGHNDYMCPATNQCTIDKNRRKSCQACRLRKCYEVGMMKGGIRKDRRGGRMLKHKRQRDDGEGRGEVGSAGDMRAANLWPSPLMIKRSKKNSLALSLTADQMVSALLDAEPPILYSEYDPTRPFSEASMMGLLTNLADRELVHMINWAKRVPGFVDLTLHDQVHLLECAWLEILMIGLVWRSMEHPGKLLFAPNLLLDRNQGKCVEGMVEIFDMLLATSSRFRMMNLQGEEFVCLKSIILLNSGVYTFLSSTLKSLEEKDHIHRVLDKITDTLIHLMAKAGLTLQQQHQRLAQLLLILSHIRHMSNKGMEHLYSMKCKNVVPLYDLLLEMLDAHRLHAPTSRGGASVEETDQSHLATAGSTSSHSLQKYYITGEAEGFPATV

C[C@H]1CCCC(=O)CCC/C=C/c2cc(O)cc(O)c2C(=O)O1 [ZEN, (2E,11S)-15,17-dihydroxy-11-methyl-12-oxabicyclo[12.4.0]octadeca-1(18),2,14,16-tetraene-7,13-dione]
agonist action on estrogen receptor α [1]: full
days of exposure after which vulva surface was significantly increased ([2]; ZEN high (4.6 mg/kg diet)): six
reproductive tract weight relative to body weight, average (±SD) ([2]; ZEN high (4.6 mg/kg diet), 28 days): 353.4±110.6
increase of vulva surface compared to the control group ([2]; ZEN high (4.6 mg/kg diet)): +230%
reproductive tract weight relative to body weight, average (±SD) ([2]; ZEN low (0.17 mg/kg diet), 28 days): 55.8±17.2
days of exposure after which vulva surface was significantly increased ([2]; ZEN medium (1.5 mg/kg diet)): thirteen
reproductive tract weight relative to body weight, average (±SD) ([2]; ZEN medium (1.5 mg/kg diet), 28 days): 121.4±43.4
increase of vulva surface compared to the control group ([2]; ZEN medium (1.5 mg/kg diet)): +90%
effect on the body weight of the piglets ([2]; independent of the concentration (0.17-4.6 mg/kg diet), 28 days): no effect
action on pregnane X receptor [3]: activates
acute toxicity [4]: low
mammary gland development [5]: triggered
expression of miR-7 in pituitary tissue [6]: increase
serum levels of ssc-miR-1, ssc-miR-142-3p, ssc-miR-181c and ssc-miR-182 [7, 8]: down-regulated
serum levels of ssc-miR-140-3p, ssc-miR-455-3p, ssc-miR-455-5p and ssc-miR-542-3p [7, 8]: Up-regulated
log 2-transformed fold changes of serum ssc-miR-129a, ssc-miR-135, ssc-miR-206, ssc-miR-432-5p, ssc-miR-493-3p and ssc-miR-503 ([7]; Ctrl vs ZEN high group, log 2 fold changes ≤−0.8 or ≥0.8): considerable effect
